# Data as given in paper PMC8632988, “Inhibition of SYK and cSrc kinases can protect bone and cartilage in preclinical models of osteoarthritis and rheumatoid arthritis” (Scientific Reports, 2021).
# Values joined by “and” are separate entries in the source; they are usually repeats but may differ in a detail not shown here. Equal entries are not always repeated.
# Tested on: DBA/1 mice, CIA model
# Test: Collagen-induced arthritis model in mice
# Type: in vivo, mouse
# Set-up: Total AUC Sum (d1-11) / Total AUC Sum (d1-11), Mean: scale not given here
# Conditions: MTX 1.5 mg/kg PO; for Summed Prophylactic (Non-Enrollment) Paw Score / Total AUC Sum (d1-11), Prophylactic (Non-Enrollment) Paw Score: QD
# Description: Collagen-induced arthritis (CIA) model was performed at Bolder BioPATH, USA. Study design and animal usage was approved by Bolder BioPATH’s Institutional Animal Care and Use Committee. CIA was induced in 6–7 week old male DBA/1 mice with body weight of 15–26 g (Harlan, Inc) by intradermal injection of Freund’s Complete Adjuvant (Difco) containing bovine type II collagen (Bolder BioPATH) on day 0 and again on day 21 according to the standard protocol. […] After that mice were randomized into six groups: a control group of four, vehicle group and four treatment groups of ten mice each. […] Each paw was scored daily for inflammation. Therapeutic and prophylactic paws were considered. At study termination mice were euthanized by CO2 inhalation followed by cervical dislocation. Fore paws, hind paws, and knees were removed for microscopy.
# Mice were weighed on arthritis days 1, 3, 5, 7, 9, and 11 (prior to necropsy). Daily clinical scores were given for each of the paws (right front, left front, right rear, left rear) on days 1–11 using the following criteria:
# After 1–2 days in fixative and 4–5 days in 5% formic acid for decalcification, tissues were trimmed, processed for paraffin embedding, sectioned at 8 µm and stained with toluidine blue. Hind paws and knees were embedded and sectioned in the frontal plane. Two joints from each animal were processed for histopathology evaluation. The joints were then scored by two independent readers as indicated below. When scoring, severity of changes as well as number of individual joints affected were considered. When only 1–3 joints of the paws or ankles out of a possibility of numerous metacarpal/metatarsal/digit or tarsal/tibiotarsal joints were affected, an arbitrary assignment of a maximum score of 1, 2 or 3 for parameters below was given depending on severity of changes. If more than 3 joints were involved, the criteria below were applied to the most severely affected/majority of joints.
# [1] = all joints, QD (Group 3), group mean
# [2] = all joints, QD (Group 3), individual animals
structure (smiles),measurement,setting,value
"CN(Cc1cnc2nc(N)nc(N)c2n1)c1ccc(C(=O)N[C@@H](CCC(=O)O)C(=O)O)cc1 [MTX, methotrexate, reference compound]",Summed Prophylactic (Non-Enrollment) Paw Score,"Day 11, group mean",7.40
same,Summed Prophylactic (Non-Enrollment) Paw Score,"Day 11, individual animals",6 and 5 and 4 and 14 and 10 and 8
same,"Total AUC Sum (d1-11), Prophylactic (Non-Enrollment) Paw Score",group mean,52.20
same,"Total AUC Sum (d1-11), Prophylactic (Non-Enrollment) Paw Score",individual animals,41.0 and 33.5 and 35.0 and 16.0 and 80.0 and 101.0 and 88.0 and 58.0 and 34.5
same,"% inhibition, Bone Resorption score","all joints, QD (Group 3)",8%
same,"% inhibition, Cartilage Damage score","all joints, QD (Group 3)",3%
same,"% inhibition, Inflammation score","all joints, QD (Group 3)",4%
same,"% inhibition, Pannus score","all joints, QD (Group 3)",8%
same,"% inhibition, Periosteal Bone Formation score","all joints, QD (Group 3)",3%
same,"% inhibition, Periosteal Bone Width","all joints, QD (Group 3)",6%
same,"% inhibition, Summed Scores","all joints, QD (Group 3)",5%
same,"Histopathology Scores Bone Resorption, Mean",[1],1.58
same,"Histopathology Scores Cartilage Damage, Mean",[1],3.21
same,"Histopathology Scores Inflammation, Mean",[1],3.55
same,"Histopathology Scores Pannus, Mean",[1],1.58
same,"Histopathology Scores Periosteal Bone Formation, Mean",[1],1.10
same,"Histopathology Scores Summed Scores, Mean",[1],11.03
same,"Periosteal Bone Width (40*25x measure), Mean",[1],92.67 μm
same,Histopathology Scores Bone Resorption,[2],1.17 and 1.67 and 1.08 and 1.00 and 2.33 and 1.58 and 1.25 and 1.83 and 2.25
same,Histopathology Scores Cartilage Damage,[2],1.92 and 3.00 and 1.67 and 2.17 and 4.17 and 4.33 and 3.83 and 3.17 and 4.83
same,Histopathology Scores Inflammation,[2],2.33 and 3.08 and 2.50 and 2.25 and 4.67 and 4.83 and 4.00 and 3.33 and 3.83
same,Histopathology Scores Pannus,[2],1.17 and 1.67 and 1.08 and 1.00 and 2.33 and 1.58 and 1.25 and 1.83 and 2.25
same,Histopathology Scores Periosteal Bone Formation,[2],0.83 and 1.33 and 0.50 and 1.17 and 1.50
same,Histopathology Scores Summed Scores,[2],7.42 and 10.75 and 6.83 and 7.25 and 13.33 and 15.33 and 12.17 and 9.67 and 12.00 and 15.50
same,Periosteal Bone Width (40*25x measure),[2],80.00 μm and 106.67 μm and 40.00 μm and 140.00 μm and 86.67 μm and 60.00 μm and 146.67 μm
same,"% inhibition to Vehicle, Total AUC Sum (d1-11)","therapeutic/enrollment paw score, QD (Group 3)",3%
same,"Total AUC Sum (d1-11), Mean","therapeutic/enrollment paw score, QD (Group 3), group mean",61.65
same,Total AUC Sum (d1-11),"therapeutic/enrollment paw score, QD (Group 3), individual animals",43 and 36 and 65 and 75 and 130 and 82 and 38 and 78
same,"% inhibition to Vehicle, paw score Day 1","therapeutic/enrollment paws, Day 1, QD (Group 3)",0%
same,"Summed Therapeutic (Enrollment) Paw Score Day 1, Mean","therapeutic/enrollment paws, Day 1, QD (Group 3), group mean",3.20
same,Summed Therapeutic (Enrollment) Paw Score Day 1,"therapeutic/enrollment paws, Day 1, QD (Group 3), individual animals",2 and 4 and 6
same,"% inhibition to Vehicle, paw score Day 2","therapeutic/enrollment paws, Day 2, QD (Group 3)",9%
same,"Summed Therapeutic (Enrollment) Paw Score Day 2, Mean","therapeutic/enrollment paws, Day 2, QD (Group 3), group mean",4.30
same,Summed Therapeutic (Enrollment) Paw Score Day 2,"therapeutic/enrollment paws, Day 2, QD (Group 3), individual animals",3 and 2 and 5 and 6 and 8
same,"% inhibition to Vehicle, paw score Day 3","therapeutic/enrollment paws, Day 3, QD (Group 3)",12%
same,"Summed Therapeutic (Enrollment) Paw Score Day 3, Mean","therapeutic/enrollment paws, Day 3, QD (Group 3), group mean",5.20
same,Summed Therapeutic (Enrollment) Paw Score Day 3,"therapeutic/enrollment paws, Day 3, QD (Group 3), individual animals",4 and 3 and 5 and 7 and 9
same,"% inhibition to Vehicle, paw score Day 4","therapeutic/enrollment paws, Day 4, QD (Group 3)",−2%
same,"Summed Therapeutic (Enrollment) Paw Score Day 4, Mean","therapeutic/enrollment paws, Day 4, QD (Group 3), group mean",6.30
same,Summed Therapeutic (Enrollment) Paw Score Day 4,"therapeutic/enrollment paws, Day 4, QD (Group 3), individual animals",4 and 3 and 7 and 8 and 12 and 9
same,"% inhibition to Vehicle, paw score Day 5","therapeutic/enrollment paws, Day 5, QD (Group 3)",−2%
same,"Summed Therapeutic (Enrollment) Paw Score Day 5, Mean","therapeutic/enrollment paws, Day 5, QD (Group 3), group mean",6.70
same,Summed Therapeutic (Enrollment) Paw Score Day 5,"therapeutic/enrollment paws, Day 5, QD (Group 3), individual animals",4 and 7 and 8 and 15 and 9
same,"% inhibition to Vehicle, paw score Day 6","therapeutic/enrollment paws, Day 6, QD (Group 3)",−2%
same,"Summed Therapeutic (Enrollment) Paw Score Day 6, Mean","therapeutic/enrollment paws, Day 6, QD (Group 3), group mean",6.70
same,Summed Therapeutic (Enrollment) Paw Score Day 6,"therapeutic/enrollment paws, Day 6, QD (Group 3), individual animals",4 and 7 and 8 and 15 and 9
same,"% inhibition to Vehicle, paw score Day 7","therapeutic/enrollment paws, Day 7, QD (Group 3)",0%
same,"Summed Therapeutic (Enrollment) Paw Score Day 7, Mean","therapeutic/enrollment paws, Day 7, QD (Group 3), group mean",6.80
same,Summed Therapeutic (Enrollment) Paw Score Day 7,"therapeutic/enrollment paws, Day 7, QD (Group 3), individual animals",5 and 4 and 7 and 8 and 15 and 9
same,"% inhibition to Vehicle, paw score Day 8","therapeutic/enrollment paws, Day 8, QD (Group 3)",3%
same,"Summed Therapeutic (Enrollment) Paw Score Day 8, Mean","therapeutic/enrollment paws, Day 8, QD (Group 3), group mean",6.80
same,Summed Therapeutic (Enrollment) Paw Score Day 8,"therapeutic/enrollment paws, Day 8, QD (Group 3), individual animals",5 and 4 and 7 and 8 and 15 and 9
same,"% inhibition to Vehicle, paw score Day 9","therapeutic/enrollment paws, Day 9, QD (Group 3)",5%
same,"Summed Therapeutic (Enrollment) Paw Score Day 9, Mean","therapeutic/enrollment paws, Day 9, QD (Group 3), group mean",6.90
same,Summed Therapeutic (Enrollment) Paw Score Day 9,"therapeutic/enrollment paws, Day 9, QD (Group 3), individual animals",5 and 4 and 7 and 8 and 15 and 9
same,"% inhibition to Vehicle, paw score Day 10","therapeutic/enrollment paws, Day 10, QD (Group 3)",7%
same,"Summed Therapeutic (Enrollment) Paw Score Day 10, Mean","therapeutic/enrollment paws, Day 10, QD (Group 3), group mean",6.90
same,Summed Therapeutic (Enrollment) Paw Score Day 10,"therapeutic/enrollment paws, Day 10, QD (Group 3), individual animals",5 and 4 and 7 and 8 and 15 and 9
same,"% inhibition to Vehicle, paw score Day 11","therapeutic/enrollment paws, Day 11, QD (Group 3)",7%
same,"Summed Therapeutic (Enrollment) Paw Score Day 11, Mean","therapeutic/enrollment paws, Day 11, QD (Group 3), group mean",6.90
same,Summed Therapeutic (Enrollment) Paw Score Day 11,"therapeutic/enrollment paws, Day 11, QD (Group 3), individual animals",5 and 4 and 7 and 8 and 15 and 9
